The values that follow are results of earlier work, collected in patent US20050148561A1, “Novel triterpene derivatives, preparation thereof and use thereof” (Panacos Pharmaceuticals, Inc., priority 2003, published 2005).

Read-outs that look alike come from different tables or passages of the source.

In this series the test system is HIV-1.

As for `CC(=O)[C@@H]1CC[C@]2(C(=O)O)CC[C@]3(C)[C@H](CC[C@@H]4[C@@]5(C)CC[C@H](O)C(C)(C)[C@@H]5CC[C@]43C)[C@@H]12` [platanic acid], the T.I. (H9 lymphocyte cells) is reported as 14. Moreover, the EC50 (commonly the concentration at which the effect is half-maximal) (H9 lymphocyte cells, read-out: EC50, inhibitory activity against HIV-1 replication) is 6.5 µM.

Turning to `CC(C)[C@@H]1CC[C@]2(C(=O)O)CC[C@]3(C)C(CCC4[C@@]5(C)CC[C@H](O)C(C)(C)C5CC[C@]43C)C12` (stereo partly shown) [dihydrobetulinic acid], the T.I. (H9 lymphocyte cells) is reported as 14. In addition, where the note is “unit inferred, read-out: EC50, anti-HIV activity”, the EC50 is 0.9 µM.
